Experimental data taken from article PMC3638593, “1,4-dihydroxy-2-naphthoic Acid Induces Apoptosis in Human Keratinocyte: Potential Application for Psoriasis Treatment” (Evidence-based Complementary and Alternative Medicine : eCAM, 2013).
Values joined by “and” are separate entries in the source; they are usually repeats but may differ in a detail not shown here. Identical values can stand only once. Like-named read-outs stand apart in the source and are kept apart here. * marks the point of attachment. Cbz = O=C(OCc1ccccc1)*; CH2F = FC*

Tests used:
Format in all cases: cell-based, human
NCTC 2544 cells = assay: Proliferation assay (sulphorhodamine B) on NCTC 2544; conditions: Homo sapiens, read-out: IC50 on growth
Source text: (§1) The spontaneously immortalized human epidermal keratinocyte HaCaT cells were purchased from China Centre for Type Culture Collection, Wuhan, China. The human foreskin fibroblast Hs-68 cells were purchased from the American Type Culture Collection (Manassas, VA, USA). The human undifferentiated keratinocyte NCTC 2544 cells were provided by Interlab Cell Line Collection (Genoa, Italy) and the immortalized human epidermal melanocyte PIG1 cells were a gift from Dr Caroline Le Poole (Loyola University Chicago, Maywood, IL, USA). HaCaT and Hs-68 cells were maintained in DMEM, NCTC 2544 in RPMI 1640 and PIG1 cells in Medium 254 with Human Melanocyte Growth Supplement-2, respectively. All cells were cultured in complete medium containing 10% FBS, 100 μg/mL of streptomycin, and 100 U/mL of penicillin (Gibco Laboratories) at 37°C in a humidified atmosphere of 5% CO2. Cell culture experiments were carried out at 60–80% confluent.
(§2) The ethyl acetate extract (EA) of Rubia cordifolia L. was isolated as described. 1,4-dihydroxy-2-naphthoic acid (98%), dithranol (≥90%), and EA were dissolved in DMSO as stock. All cells were seeded and treated with various concentrations of DHNA, dithranol or EA. After treatment, cells were fixed with cold 50% trichloroacetic acid and incubated 1 h at 4°C. Cell was then washed with deionized water, air-dried, and stained with 0.4% (w/v) sulphorhodamine B for 30 min at room temperature. Unincorporated dye was removed with 1% acetic acid wash and the cell was again air-dried. Incorporated dye was then solubilized in 10 mM Tris base and absorbance was measured at 565/690 nm using a Sunrise microplate spectrophotometer (Tecan, Switzerland). IC50 were determined using GraphPad Prism 5.0 (GraphPad Software, San Diego, CA, USA).

[1] = test system: IL-1α release from NCTC 2544 cells; assay: IL-1α release assay (ELISA)
Description: NCTC 2544 cells were seeded and treated with various concentrations of DHNA or dithranol for 72 h. After incubation, the microplate was centrifuged and conditioned medium was collected to determine the extracellular IL-1α (IL-1α release) using an IL-1α ELISA kit (Diaclone Research, France). All other steps were then according to the manufacturer's protocol. Results were expressed in pg/mL.

HaCaT cells [2] = assay: Proliferation assay (sulphorhodamine B) on HaCaT; conditions: Homo sapiens, read-out: IC50 on growth
Source text: as §1, §2

HaCaT cells [3] = assay: Annexin V/propidium iodide staining, flow cytometry; conditions: 40 μM pretreatment 1 h, then DHNA 24 h
Description: After DHNA treatment, HaCaT cells were resuspended in annexin V binding buffer (10 mM HEPES, 140 mM NaCl, and 2.5 mM CaCl2, pH 7.4) and then incubated with FITC-conjugated annexin V (Biosource International, Inc., USA), and 0.5 μg/mL propidium iodide (PI) for 15 min at room temperature in the dark. Cells were analyzed on a FACSCanto flow cytometer (BD Biosciences, San Jose, CA, USA) immediately and then analyzed using WinMDI 2.9 (developed by Dr. J. Trotter, Scripps Institute, La Jolla, CA, USA). The total number of early (FITC+/PI−) and late (FITC+/PI+) apoptotic cells was assessed. In another experiment, HaCaT cells were preincubated with 40 μM pan-caspase inhibitor Z-VAD-FMK (BD Pharmingen, San Diego, CA, USA) for 1 h before exposure to DHNA.

| Compound | IC50 (NCTC 2544 cells; NCTC 2544, incubation 48 h) | IC50 (NCTC 2544 cells; NCTC 2544, incubation 72 h) | IL-1α release at concentrations below IC50 on NCTC 2544 ([1]; 2 to 3 μM or 0.45 to 0.68 μg/mL, 72 h) | IL-1α release versus vehicle control ([1]; 2 to 8 μM (0.45 to 1.81 μg/mL), 72 h) | concentration at which IL-1α release is significantly induced ([1]; NCTC 2544, 72 h, versus vehicle control) | IC50 (HaCaT cells [2]; incubation 48 h) | IC50 (HaCaT cells [2]; incubation 72 h) | effect of pan-caspase inhibitor on DHNA-induced apoptosis (HaCaT cells [3]) |
| --- | --- | --- | --- | --- | --- | --- | --- | --- |
| O=C1c2c(O)cccc2Cc2cccc(O)c21 [Dithranol, dithranol, reference compound] | 6.21 µM and 1.41 µg/mL | 3.81 µM and 0.86 µg/mL | readily induced the release of this cytokine | induced significant release of this cytokine at all concentrations tested | 2 μM and 0.45 μg/mL | 24.8 µM and 5.6 µg/mL | 9.39 µM and 2.12 µg/mL |  |
| Cbz-Val-Ala-Asp-CH2F [reference compound] |  |  |  |  |  |  |  | partially blocked |
